According to US20070207195A1, “Genetic Screening for Polymorphisms in Human Genes that Increase or Decrease Sensitivity to Toxic Agents” (Applied Genetics Incorporated Dermatics, priority 2004, published 2007):

Test system: NCI screening panel tumor cell lines
Assay: Growth inhibition (GI50, sulforhodamine B) in NCI tumor cell line panel, correlated with polymorphic genotype
Type: cell-based, human
[1] = NOS3 t-786c, ratio of average GI(50) of genotypes, 48 h drug incubation

Protocol: The method tests a toxic agent over five 10-fold dilutions in cells for 48 hrs in a 5% CO2 atmosphere and 100% humidity. For most agents the highest concentration was 0.1 mM, but for the standard agents the highest well concentration depended on experience with the agent. DNA purified from each cell line was analyzed for SNPs at the alleles of interest. […] Cell suspensions were added to a microtiter plate and incubated for 24 h at 37° C. The drugs were added at concentrations spanning five 10-fold dilutions, and incubated for 48 h. The cells were assayed by staining the cells with sulforhodamine B, and a plate reader was used to read the optical densities. The results are expressed as a GI50 value, which is the drug concentration producing 50% growth inhibition, with correction for the cell count at time zero. […] The drug sensitivities for the polymorphs of each gene of interest were calculated in the following manner. For each drug, the average GI(50) for each polymorphic genotype was calculated, e.g., the GI(50) for the homozygous dominant, heterozygous and homozygous variant genotypes. Then the GI(50)s for all the drugs were analyzed among genotypes by nonparametric Friedman Repeated Measures ANOVA. In this test the GI(50) is only used for ranking among the genotypes for each drug, so errors due to sample size among genotypes are minimized. Statistical analysis of each pair of polymorphic genotypes was done by the Tukey-Kramer Multiple Comparison Test. Analysis of relative sensitivity of the genotypes to an individual drug was by parametric ANOVA. To determine the relative sensitivity of each pair of genotypes, the relative sensitivity to each drug was calculated by dividing the GI(50) of one genotype by the GI(50) of the other. The relative sensitivities for all the drugs were then averaged. For each pair of genotypes, we also calculated the percent of drugs in which one genotype was more sensitive than the other. […]

| Structure (SMILES) | survival of NOS3 t-786c homozygous variant genotype relative to heterozygous genotype [1] [%] | survival of NOS3 t-786c homozygous variant genotype relative to homozygous dominant genotype [1] [%] | resistance of XRCC1 R399Q homozygous variant genotype versus homozygous dominant genotype (XRCC1 R399Q, single-drug analysis, p=0.045 Bonferroni adjusted multiple comparison test) |
| --- | --- | --- | --- |
| Nc1nc2nc[nH]c2c(=S)[nH]1 [thioguanine, Thioguanine] | 35 | 68 |  |
| CC[C@]1(O)C[C@@H]2CN(CCc3c([nH]c4ccccc34)[C@@](C(=O)OC)(c3cc4c(cc3OC)N(C)[C@H]3[C@@](O)(C(=O)OC)[C@H](OC(C)=O)[C@]5(CC)C=CCN6CC[C@]43[C@@H]65)C2)C1 [vinblastine] |  |  | significantly more resistant |
